Assay results taken from ChEMBL document CHEMBL1136698, “Peptoid mimics of agouti related protein” (Bioorg Med Chem Lett, 2003).
One block for each compound: values may come before it.

Assays:
[1] = biological target: T1, Melanocortin receptor 4 (Homo sapiens, UniProt P32245); assay: Binding affinity against human melanocortin 4 receptor (hMC4R) using [125I]- agouti related protein (AGRP) as radioligand
[2] = biological target: T1, Melanocortin receptor 4; assay: Binding affinity against human melanocortin 4 receptor (hMC4R) using [125I]- ([Nle4]alpha-MSH) as radioligand
[3] = biological target: T1, Melanocortin receptor 4; assay: Binding affinity against human melanocortin 4 receptor (hMC4R) using [125I]- agouti related protein (AGRP) as radioligand; NA: Not active
[4] = biological target: T1, Melanocortin receptor 4; assay: Binding affinity against human melanocortin 4 receptor (hMC4R) using [125I]- ([Nle4]alpha-MSH) as radioligand; NA: Not active
[5] = biological target: T2, Melanocortin receptor 3 (Homo sapiens, UniProt P41968); assay: Inhibitory activity against hMC3R (human melanocortin receptor) using [125I]-[Nle4] alpha-MSH as radioligand
[6] = biological target: T2, Melanocortin receptor 3; assay: Inhibitory activity against hMC3R (human melanocortin receptor) using I-AGRP as radioligand
[7] = biological target: T1, Melanocortin receptor 4; assay: Binding affinity against human melanocortin 4 receptor (hMC4R) using [125I]- NDP-MSH as radioligand
[8] = biological target: T3, Melanocyte-stimulating hormone receptor (Homo sapiens, UniProt Q01726); assay: Inhibitory activity against hMC1R (human melanocortin receptor) using [125I]-[Nle4] alpha-MSH as radioligand
[9] = biological target: T1, Melanocortin receptor 4; assay: Inhibitory activity against hMC4R (human melanocortin receptor) using [125I]-[Nle4] alpha-MSH as radioligand
[10] = biological target: T1, Melanocortin receptor 4; assay: Inhibitory activity against hMC4R (human melanocortin receptor) using I-AGRP as radioligand
[11] = biological target: T3, Melanocyte-stimulating hormone receptor; assay: Inhibitory activity against hMC1R (human melanocortin receptor) using [125I]- ASIP Y radioligand

T1 sequence (P32245 whole entry): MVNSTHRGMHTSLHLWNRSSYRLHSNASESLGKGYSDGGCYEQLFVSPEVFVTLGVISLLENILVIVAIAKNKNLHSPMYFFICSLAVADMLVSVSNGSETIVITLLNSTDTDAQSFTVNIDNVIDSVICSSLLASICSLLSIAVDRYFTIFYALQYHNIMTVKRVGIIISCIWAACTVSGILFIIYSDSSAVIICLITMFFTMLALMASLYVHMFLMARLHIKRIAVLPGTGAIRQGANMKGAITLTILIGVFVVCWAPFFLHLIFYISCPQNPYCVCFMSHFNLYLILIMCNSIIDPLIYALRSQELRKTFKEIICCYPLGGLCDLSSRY
T2 sequence (P41968 whole entry): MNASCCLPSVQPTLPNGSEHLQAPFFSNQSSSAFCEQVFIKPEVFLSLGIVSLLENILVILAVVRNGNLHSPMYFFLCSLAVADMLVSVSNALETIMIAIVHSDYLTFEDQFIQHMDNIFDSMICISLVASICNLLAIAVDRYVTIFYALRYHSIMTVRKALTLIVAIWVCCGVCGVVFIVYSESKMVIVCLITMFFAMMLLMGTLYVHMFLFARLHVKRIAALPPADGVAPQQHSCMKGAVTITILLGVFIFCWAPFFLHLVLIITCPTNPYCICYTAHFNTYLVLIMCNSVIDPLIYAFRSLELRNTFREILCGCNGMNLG
T3 sequence (Q01726 whole entry): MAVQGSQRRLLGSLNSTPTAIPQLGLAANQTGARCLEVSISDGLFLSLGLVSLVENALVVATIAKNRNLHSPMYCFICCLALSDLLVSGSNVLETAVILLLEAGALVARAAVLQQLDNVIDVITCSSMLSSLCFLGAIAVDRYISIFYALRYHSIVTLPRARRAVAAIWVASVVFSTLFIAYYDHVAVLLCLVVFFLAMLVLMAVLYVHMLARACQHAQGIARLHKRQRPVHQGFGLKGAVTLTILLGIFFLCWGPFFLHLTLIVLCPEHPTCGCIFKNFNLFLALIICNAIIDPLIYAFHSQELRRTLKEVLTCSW

IC50 [1]: > 100 µM | IC50 [2]: > 100 µM
Structure (SMILES): C[C@H](c1ccccc1)N(CC(N)=O)C(=O)CN(Cc1ccccc1)C(=O)CNCCCN=C(N)N

IC50 [3]: Not Active | IC50 [4]: Not Active
Structure (SMILES): C[C@@H](c1ccccc1)N(CC(N)=O)C(=O)CN(Cc1ccccc1)C(=O)CNCCCN=C(N)N

IC50 [2]: > 100 µM
Structure (SMILES): CC(C)(C(N)=O)N(Cc1ccccc1)C(=O)CN(CCc1ccccc1)C(=O)CNCCCN=C(N)N

IC50 [1]: 1.9 µM | IC50 [5]: 48 µM | IC50 [6]: > 50 µM | IC50 [7]: 2.1 µM | IC50 [2]: 3.1 µM | IC50 [8]: 9.1 µM | IC50 [9]: 3.1 µM | IC50 [10]: 1.9 µM | IC50 [11]: 25 µM
Structure (SMILES): C[C@H](c1ccccc1)N(CC(N)=O)C(=O)CN(C(=O)CNCCCNC(=N)N)C(c1ccccc1)c1ccccc1

IC50 [1]: > 100 µM | IC50 [2]: > 100 µM
Structure (SMILES): NC(=O)CN(Cc1ccccc1)C(=O)CN(Cc1ccccc1)C(=O)CNCCCN=C(N)N
